Results published in ChEMBL document CHEMBL5291721, “A preclinical secondary pharmacology resource illuminates target-adverse drug reaction associations of marketed drugs” (Nat Commun, 2023).

Assays:
[1] = target: T1, Amine oxidase [flavin-containing] A (Homo sapiens, UniProt P21397); type: functional
T1 sequence (P21397 whole entry): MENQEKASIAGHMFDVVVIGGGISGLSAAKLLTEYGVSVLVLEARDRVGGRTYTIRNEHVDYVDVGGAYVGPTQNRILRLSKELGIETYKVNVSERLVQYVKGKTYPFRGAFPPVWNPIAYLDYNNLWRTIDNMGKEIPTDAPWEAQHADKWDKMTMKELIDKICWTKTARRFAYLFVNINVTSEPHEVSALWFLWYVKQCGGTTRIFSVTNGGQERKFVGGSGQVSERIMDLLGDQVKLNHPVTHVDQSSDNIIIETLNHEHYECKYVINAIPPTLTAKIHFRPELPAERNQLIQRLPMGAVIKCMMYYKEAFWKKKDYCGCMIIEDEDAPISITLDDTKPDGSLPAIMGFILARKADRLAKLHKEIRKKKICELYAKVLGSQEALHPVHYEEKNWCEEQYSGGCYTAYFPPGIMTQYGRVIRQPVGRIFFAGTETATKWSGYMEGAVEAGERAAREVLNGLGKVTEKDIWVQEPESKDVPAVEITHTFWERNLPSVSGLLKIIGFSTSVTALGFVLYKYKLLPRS

[2] = target: T2, 5-hydroxytryptamine receptor 1A (Homo sapiens, UniProt P08908)
T2 sequence (P08908 whole entry): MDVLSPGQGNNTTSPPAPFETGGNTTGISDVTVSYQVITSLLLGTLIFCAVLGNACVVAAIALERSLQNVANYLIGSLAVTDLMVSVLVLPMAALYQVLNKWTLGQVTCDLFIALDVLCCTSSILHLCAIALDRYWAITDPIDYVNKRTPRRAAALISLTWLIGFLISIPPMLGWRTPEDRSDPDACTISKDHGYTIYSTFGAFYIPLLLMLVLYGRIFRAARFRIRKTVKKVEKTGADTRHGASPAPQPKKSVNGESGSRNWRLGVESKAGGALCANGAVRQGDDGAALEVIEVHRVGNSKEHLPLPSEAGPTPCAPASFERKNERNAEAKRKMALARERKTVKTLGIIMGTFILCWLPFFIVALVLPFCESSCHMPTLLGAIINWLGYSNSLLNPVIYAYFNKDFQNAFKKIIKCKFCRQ

[3] = target: cGMP-inhibited 3',5'-cyclic phosphodiesterase 3A (Homo sapiens, UniProt Q14432); type: functional
Histamine H3 receptor = Histamine H3 receptor (Homo sapiens, UniProt Q9Y5N1)
[4] = target: 3',5'-cyclic-AMP phosphodiesterase 4A (Homo sapiens, UniProt P27815); type: functional
[5] = target: T3, Alpha-2A adrenergic receptor (Homo sapiens, UniProt P08913)
T3 sequence (P08913 whole entry): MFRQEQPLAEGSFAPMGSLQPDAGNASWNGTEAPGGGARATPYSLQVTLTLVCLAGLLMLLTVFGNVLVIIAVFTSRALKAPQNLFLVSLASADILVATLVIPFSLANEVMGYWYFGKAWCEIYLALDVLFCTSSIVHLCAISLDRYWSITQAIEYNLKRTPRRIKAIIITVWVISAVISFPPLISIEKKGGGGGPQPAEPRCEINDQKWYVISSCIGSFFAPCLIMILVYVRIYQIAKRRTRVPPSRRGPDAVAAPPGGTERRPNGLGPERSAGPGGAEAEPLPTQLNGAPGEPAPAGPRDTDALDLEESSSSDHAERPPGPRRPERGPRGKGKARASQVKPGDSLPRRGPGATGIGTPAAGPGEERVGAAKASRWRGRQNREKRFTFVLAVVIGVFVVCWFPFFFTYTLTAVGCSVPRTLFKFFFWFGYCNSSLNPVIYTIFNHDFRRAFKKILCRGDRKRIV

[6] = target: Voltage-gated inwardly rectifying potassium channel KCNH2 (Homo sapiens, UniProt Q12809); type: functional
[7] = target: Sodium-dependent dopamine transporter (Homo sapiens, UniProt Q01959)
[8] = target: 5-hydroxytryptamine receptor 2B (Homo sapiens, UniProt P41595); type: functional, cell-based
Acetylcholinesterase = Acetylcholinesterase (Homo sapiens, UniProt P22303); type: functional
Thromboxane A2 receptor [9] = target: T4, Thromboxane A2 receptor (Homo sapiens, UniProt P21731); type: functional, cell-based
T4 sequence (P21731 whole entry): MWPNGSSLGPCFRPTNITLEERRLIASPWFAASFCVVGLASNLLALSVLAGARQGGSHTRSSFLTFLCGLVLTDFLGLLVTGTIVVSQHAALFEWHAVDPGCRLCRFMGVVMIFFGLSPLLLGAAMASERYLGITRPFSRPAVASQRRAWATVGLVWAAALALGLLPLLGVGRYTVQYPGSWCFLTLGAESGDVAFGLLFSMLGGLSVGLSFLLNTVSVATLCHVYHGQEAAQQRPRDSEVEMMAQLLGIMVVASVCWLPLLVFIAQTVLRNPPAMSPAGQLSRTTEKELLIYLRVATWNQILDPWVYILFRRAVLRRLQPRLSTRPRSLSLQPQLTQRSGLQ

Prothrombin = Prothrombin (Homo sapiens, UniProt P00734); type: functional
[10] = target: T5, Muscarinic acetylcholine receptor M2 (Homo sapiens, UniProt P08172)
T5 sequence (P08172 whole entry): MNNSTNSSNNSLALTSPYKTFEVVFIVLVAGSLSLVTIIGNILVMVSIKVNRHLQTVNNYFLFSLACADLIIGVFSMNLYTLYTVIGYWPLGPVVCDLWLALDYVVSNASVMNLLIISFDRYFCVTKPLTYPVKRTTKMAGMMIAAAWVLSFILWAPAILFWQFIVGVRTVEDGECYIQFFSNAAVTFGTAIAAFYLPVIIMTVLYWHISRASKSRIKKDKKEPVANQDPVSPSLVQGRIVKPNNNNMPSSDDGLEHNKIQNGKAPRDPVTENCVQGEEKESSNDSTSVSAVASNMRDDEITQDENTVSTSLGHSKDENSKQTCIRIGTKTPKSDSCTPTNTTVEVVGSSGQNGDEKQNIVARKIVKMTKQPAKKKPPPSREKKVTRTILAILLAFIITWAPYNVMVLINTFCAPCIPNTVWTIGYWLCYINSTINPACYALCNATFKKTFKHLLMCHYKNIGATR

Thromboxane A2 receptor [11] = target: T4, Thromboxane A2 receptor; type: functional, cell-based; remark: listed apart in the source
Further: assay procedure not described here.

Sequence of Sodium-dependent dopamine transporter (Q01959 whole entry): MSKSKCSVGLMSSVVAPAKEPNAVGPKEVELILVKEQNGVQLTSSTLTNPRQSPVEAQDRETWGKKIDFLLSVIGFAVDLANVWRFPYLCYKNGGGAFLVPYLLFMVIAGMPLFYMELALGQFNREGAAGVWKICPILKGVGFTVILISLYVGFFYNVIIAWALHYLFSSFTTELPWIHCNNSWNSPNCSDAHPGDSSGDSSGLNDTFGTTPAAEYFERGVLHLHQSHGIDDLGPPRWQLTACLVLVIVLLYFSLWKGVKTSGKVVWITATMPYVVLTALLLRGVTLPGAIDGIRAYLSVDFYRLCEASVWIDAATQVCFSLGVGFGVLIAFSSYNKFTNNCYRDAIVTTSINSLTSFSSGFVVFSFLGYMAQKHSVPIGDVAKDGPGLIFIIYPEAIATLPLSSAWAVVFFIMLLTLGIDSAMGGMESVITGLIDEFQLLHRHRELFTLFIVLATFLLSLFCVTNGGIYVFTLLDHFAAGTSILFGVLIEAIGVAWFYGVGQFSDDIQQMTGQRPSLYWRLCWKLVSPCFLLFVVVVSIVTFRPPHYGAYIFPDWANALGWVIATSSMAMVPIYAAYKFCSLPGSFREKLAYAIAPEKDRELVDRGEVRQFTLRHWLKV
Sequence of 3',5'-cyclic-AMP phosphodiesterase 4A (P27815 whole entry): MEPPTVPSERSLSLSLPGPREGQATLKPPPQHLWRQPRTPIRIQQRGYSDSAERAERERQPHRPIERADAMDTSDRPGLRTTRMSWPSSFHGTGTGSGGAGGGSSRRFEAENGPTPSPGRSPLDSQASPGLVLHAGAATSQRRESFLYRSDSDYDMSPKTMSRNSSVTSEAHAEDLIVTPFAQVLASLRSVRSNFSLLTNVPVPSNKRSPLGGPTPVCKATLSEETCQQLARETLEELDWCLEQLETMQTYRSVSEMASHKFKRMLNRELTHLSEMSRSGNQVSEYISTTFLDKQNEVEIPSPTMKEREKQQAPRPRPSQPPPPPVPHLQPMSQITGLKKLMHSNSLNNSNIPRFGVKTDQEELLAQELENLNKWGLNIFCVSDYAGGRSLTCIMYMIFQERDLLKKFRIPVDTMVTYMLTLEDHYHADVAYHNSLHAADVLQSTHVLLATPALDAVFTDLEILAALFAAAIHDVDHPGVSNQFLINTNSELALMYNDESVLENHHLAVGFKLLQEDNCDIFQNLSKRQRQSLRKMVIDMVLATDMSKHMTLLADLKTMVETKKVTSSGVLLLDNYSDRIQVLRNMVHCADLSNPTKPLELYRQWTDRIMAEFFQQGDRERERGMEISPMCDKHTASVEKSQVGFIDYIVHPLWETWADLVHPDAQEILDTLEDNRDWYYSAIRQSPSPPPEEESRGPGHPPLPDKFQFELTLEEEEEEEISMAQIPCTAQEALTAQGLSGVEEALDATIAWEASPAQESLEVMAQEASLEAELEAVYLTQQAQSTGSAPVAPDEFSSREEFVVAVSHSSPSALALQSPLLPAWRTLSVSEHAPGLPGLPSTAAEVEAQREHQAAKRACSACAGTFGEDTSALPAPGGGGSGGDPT
Sequence of Voltage-gated inwardly rectifying potassium channel KCNH2 (Q12809 whole entry): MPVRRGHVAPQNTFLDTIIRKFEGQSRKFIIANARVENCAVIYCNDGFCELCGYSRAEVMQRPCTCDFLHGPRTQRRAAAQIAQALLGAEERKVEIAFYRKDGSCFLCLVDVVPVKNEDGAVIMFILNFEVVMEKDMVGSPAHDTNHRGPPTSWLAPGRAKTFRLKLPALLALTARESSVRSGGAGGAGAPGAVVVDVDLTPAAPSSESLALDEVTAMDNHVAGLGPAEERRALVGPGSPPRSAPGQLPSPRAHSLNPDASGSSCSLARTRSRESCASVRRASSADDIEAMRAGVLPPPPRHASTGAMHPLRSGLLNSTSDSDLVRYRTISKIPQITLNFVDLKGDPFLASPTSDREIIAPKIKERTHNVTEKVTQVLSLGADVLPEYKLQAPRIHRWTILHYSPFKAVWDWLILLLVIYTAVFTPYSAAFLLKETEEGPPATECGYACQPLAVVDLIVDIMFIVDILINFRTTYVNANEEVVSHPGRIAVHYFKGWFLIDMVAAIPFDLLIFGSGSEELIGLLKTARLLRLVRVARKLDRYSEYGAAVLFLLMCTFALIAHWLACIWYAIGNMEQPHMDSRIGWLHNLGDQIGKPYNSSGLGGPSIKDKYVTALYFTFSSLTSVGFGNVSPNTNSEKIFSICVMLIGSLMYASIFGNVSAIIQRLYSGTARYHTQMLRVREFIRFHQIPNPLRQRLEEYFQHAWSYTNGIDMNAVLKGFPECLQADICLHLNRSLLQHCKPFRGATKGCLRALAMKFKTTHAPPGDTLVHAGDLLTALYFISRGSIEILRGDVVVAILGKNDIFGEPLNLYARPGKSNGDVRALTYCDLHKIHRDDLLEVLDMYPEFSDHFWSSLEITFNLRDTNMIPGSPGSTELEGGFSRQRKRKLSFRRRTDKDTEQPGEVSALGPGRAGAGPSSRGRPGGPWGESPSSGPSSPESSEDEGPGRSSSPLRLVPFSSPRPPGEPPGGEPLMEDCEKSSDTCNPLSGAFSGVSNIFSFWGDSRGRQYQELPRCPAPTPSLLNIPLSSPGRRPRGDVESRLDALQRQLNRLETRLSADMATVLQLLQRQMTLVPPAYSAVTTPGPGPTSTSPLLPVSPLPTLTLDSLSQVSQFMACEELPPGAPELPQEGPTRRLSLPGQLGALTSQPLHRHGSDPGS
Sequence of cGMP-inhibited 3',5'-cyclic phosphodiesterase 3A (Q14432 whole entry): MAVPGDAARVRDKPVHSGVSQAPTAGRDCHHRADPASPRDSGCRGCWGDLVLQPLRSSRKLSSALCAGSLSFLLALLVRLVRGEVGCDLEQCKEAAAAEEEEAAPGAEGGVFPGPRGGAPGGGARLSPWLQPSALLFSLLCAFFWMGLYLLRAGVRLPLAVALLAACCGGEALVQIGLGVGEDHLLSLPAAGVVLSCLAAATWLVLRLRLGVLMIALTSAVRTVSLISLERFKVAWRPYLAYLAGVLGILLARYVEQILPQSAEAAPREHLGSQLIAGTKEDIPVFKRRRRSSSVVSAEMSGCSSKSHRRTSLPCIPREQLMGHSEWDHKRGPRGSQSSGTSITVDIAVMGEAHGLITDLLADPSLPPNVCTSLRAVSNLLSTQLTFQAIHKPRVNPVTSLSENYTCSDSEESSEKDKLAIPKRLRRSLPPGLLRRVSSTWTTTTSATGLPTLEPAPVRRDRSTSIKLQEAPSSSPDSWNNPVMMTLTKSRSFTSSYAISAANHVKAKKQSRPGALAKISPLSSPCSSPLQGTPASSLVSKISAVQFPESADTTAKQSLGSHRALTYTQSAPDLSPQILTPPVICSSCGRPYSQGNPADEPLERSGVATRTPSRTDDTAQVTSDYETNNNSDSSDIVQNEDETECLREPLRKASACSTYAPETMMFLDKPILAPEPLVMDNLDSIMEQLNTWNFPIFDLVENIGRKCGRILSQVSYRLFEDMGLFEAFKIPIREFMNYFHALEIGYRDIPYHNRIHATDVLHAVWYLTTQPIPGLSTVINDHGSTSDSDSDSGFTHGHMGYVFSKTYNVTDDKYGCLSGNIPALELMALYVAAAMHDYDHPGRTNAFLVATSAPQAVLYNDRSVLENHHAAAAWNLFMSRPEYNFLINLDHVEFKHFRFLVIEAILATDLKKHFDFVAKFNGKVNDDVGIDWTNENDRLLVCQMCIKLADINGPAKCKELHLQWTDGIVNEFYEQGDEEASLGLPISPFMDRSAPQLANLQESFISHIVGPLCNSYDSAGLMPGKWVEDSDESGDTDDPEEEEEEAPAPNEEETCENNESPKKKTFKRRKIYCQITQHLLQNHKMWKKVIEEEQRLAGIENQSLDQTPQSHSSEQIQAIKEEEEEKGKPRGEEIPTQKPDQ
Sequence of Acetylcholinesterase (P22303 whole entry): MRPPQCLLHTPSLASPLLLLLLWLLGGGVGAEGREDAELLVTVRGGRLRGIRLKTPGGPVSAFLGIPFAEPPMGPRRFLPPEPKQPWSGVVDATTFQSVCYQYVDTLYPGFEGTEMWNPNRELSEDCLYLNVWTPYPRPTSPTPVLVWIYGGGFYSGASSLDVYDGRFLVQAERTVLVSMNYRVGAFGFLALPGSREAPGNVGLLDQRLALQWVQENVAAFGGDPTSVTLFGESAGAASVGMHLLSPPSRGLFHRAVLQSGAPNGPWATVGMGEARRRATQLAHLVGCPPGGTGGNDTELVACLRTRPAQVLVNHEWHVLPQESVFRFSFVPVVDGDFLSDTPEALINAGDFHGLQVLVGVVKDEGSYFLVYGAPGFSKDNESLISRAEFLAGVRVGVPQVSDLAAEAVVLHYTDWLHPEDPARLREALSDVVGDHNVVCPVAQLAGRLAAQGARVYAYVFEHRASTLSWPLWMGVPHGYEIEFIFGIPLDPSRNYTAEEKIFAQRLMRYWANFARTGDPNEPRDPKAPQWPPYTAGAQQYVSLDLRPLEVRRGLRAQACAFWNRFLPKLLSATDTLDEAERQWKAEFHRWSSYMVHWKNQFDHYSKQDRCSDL
Sequence of Histamine H3 receptor (Q9Y5N1 whole entry): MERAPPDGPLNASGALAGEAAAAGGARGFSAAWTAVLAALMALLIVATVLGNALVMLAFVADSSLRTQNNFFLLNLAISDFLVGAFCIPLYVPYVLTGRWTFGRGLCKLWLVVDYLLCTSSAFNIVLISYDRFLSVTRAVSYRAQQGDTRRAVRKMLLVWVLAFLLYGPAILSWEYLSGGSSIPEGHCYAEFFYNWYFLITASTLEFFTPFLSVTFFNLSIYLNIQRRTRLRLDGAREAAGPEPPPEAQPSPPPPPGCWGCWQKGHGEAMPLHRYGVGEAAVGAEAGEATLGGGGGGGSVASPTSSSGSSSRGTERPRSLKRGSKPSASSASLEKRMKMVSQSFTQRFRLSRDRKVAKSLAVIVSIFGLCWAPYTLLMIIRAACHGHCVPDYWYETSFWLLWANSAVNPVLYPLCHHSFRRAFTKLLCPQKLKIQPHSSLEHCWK

| Compound | AC50 [1] [µM] | AC50 [2] [µM] | AC50 [3] [µM] | AC50 (Histamine H3 receptor) [µM] | AC50 [4] [µM] | AC50 [5] [µM] | AC50 [6] [µM] | AC50 [7] [µM] | AC50 [8] [µM] | AC50 (Acetylcholinesterase) [µM] | AC50 (Thromboxane A2 receptor [9]) [µM] | AC50 (Prothrombin) [µM] | AC50 [10] [µM] | AC50 (Thromboxane A2 receptor [11]) [µM] |
| --- | --- | --- | --- | --- | --- | --- | --- | --- | --- | --- | --- | --- | --- | --- |
| COC(=O)[C@H]1[C@H]2C[C@@H]3c4[nH]c5cc(OC)ccc5c4CCN3C[C@H]2C[C@@H](OC(=O)c2cc(OC)c(OC)c(OC)c2)[C@@H]1OC [RESERPINE] | > 30 | > 30 | > 3 | > 30 | > 3 | > 30 | 1.46 | 29.3 | > 30 | > 30 | > 30 | > 30 | > 30 | > 30 |
| Clc1ccc(C(Cn2ccnc2)OCc2csc3c(Cl)cccc23)c(Cl)c1 (stereo not drawn) [SERTACONAZOLE] | > 30 | 12.4 | > 30 | 23.3 | 17.7 | 3.8 | 1.7 | 1.88 | > 30 | > 30 | 14.5 | > 30 | 6.26 | > 30 |
| CC(OCCN1CCCCCC1)(c1ccccc1)c1ccc(Cl)cc1 (stereo not drawn) [SETASTINE] | > 30 | 9.59 | > 30 | 23.2 | > 30 | 7.86 | 0.14 | 2.98 | > 30 | 9.61 | 8.8 | > 30 | 0.393 | > 30 |
| O=S1(=O)CCN(CN2CCS(=O)(=O)NC2)CN1 [TAUROLIDINE] | > 30 | > 30 | > 30 | > 30 | > 30 | > 30 | > 30 | > 30 | > 30 | > 30 | > 30 | > 30 | > 30 | > 30 |
| CCCSc1nc(N[C@@H]2C[C@H]2c2ccc(F)c(F)c2)c2nnn([C@@H]3C[C@H](OCCO)[C@@H](O)[C@H]3O)c2n1 [TICAGRELOR] | > 30 | > 30 | 17 | > 30 | 21.3 | > 30 | 27 | 0.425 | > 30 | > 30 | 6.38 | > 30 | > 30 | > 30 |
| c1ccc2c(SC3=NCCN3)c[nH]c2c1 [TINAZOLINE] | 15.9 | 0.19 | > 30 | > 30 | > 30 | 0.0098 | > 30 | > 30 | > 30 | > 30 | > 30 | > 30 | > 30 | > 30 |
| Cc1ccc(C(=O)C(C)CN2CCCCC2)cc1 (stereo not drawn) [TOLPERISONE] | > 30 | > 30 | > 30 | 4.74 | > 30 | > 30 | > 30 | > 30 | > 30 | > 30 | > 30 | > 30 | 3.7 | > 30 |
